Source: the METLIN SMRT retention time set (Domingo-Almenara et al. 2019)

Assay: gradient 5% acetonitrile 3 min, to 50% in 2 min, to 85% in 15 min, held 3 min, 100 µL/min
Conditions: column: Zorbax Extend-C18 2.1 x 50 mm; eluents: water / acetonitrile, 0.1% formic acid
Outline: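 A Zorbax Extend-C18 column (2.1 × 50 mm, 1.8 μm) run at 100 μL/min with water and acetonitrile, both containing 0.1% formic acid, separated mixtures of ~100 pure standards. The HPLC was coupled to a quadrupole time-of-flight mass spectrometer operated in positive and negative ionization mode, with dead and dwell volumes of 40 μL and 900 μL. Each retention time was taken from a computationally picked adduct peak that was then manually inspected.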

SMILES | RP-LC retention time
COc1cc(-c2cc(C(=O)O)c3cc4c(cc3n2)OCCO4)cc(OC)c1OC | 676 s
Cn1nc(-c2cccc(NC(=O)C3c4ccccc4Oc4ccccc43)c2)ccc1=O | 814 s
Cc1cc(-c2nnc(C3CC3)o2)c(C)n1CC(=O)Nc1ccc(F)cc1 | 792 s
Cc1ccc(NC(=O)N2CCN(c3cc(C)nc(N4CCOCC4)n3)CC2)c(Cl)c1 | 669 s
CC(C)Cc1cc(-c2nn3c(COc4ccc(Br)cc4)nnc3s2)n[nH]1 | 1030 s
CS(=O)(=O)c1ccc(Cl)c(NC(=O)c2cccnc2)c1 | 590 s
CCc1ccc(C2=C(C)C(N3CCC(C(=O)NCCCN4CCCC4)CC3)=NS2(=O)=O)cc1 | 604 s
O=C(Nc1ccccc1F)N1CCC2(CCC2N2CCOCC2)CC1 (stereo not given) | 554 s
Cn1c(=O)c2c(nc(N3CCCCC3)n2C)n(C)c1=O | 794 s
CCOC(=O)C1CCN(C(=O)COc2ccc(NC(C)=O)cn2)CC1 | 633 s
COc1ccc(CCS(=O)(=O)NCC2CCN(Cc3cccs3)CC2)cc1 | 564 s
Cc1nnc(-c2ccc3ccn(CC(=O)Nc4nccs4)c3c2)o1 | 707 s
CCc1ccc(S(=O)(=O)N2CCC(n3cnnc3C)CC2)cc1 | 715 s
CCOc1ccc(NC(=O)c2cn3c(n2)CCCC3)cc1 | 614 s
NC(=O)c1cnc(-c2ccccc2)n(CC(=O)Nc2ccccc2Br)c1=O | 740 s
Cc1cc(N2CCN(S(=O)(=O)c3ccc(F)c(F)c3)CC2)nc(N2CCCC2)n1 | 720 s
Cc1nc2cc(-c3noc(/C=C/c4ccco4)n3)ccc2o1 | 1010 s
Cc1ccc(NC(=O)N2CCC(n3cnnc3C3CC3)C2)c(Cl)c1 (stereo not given) | 663 s
CCOc1ccc(S(=O)(=O)N2CCC(C(=O)NCc3ccccn3)CC2)cc1 | 658 s
Cc1oc(-c2ccccc2)nc1Cc1noc(-c2ccncc2)n1 | 920 s
Cc1sc(-c2cc(C(F)(F)F)[nH]n2)cc1S(=O)(=O)N1CCC(C)CC1 | 1100 s
Cc1ccc(-n2c(=O)c3c(cc(C)n3C)n(CC(=O)N3CCc4ccccc43)c2=O)cc1 | 928 s
Cc1ncc2c(n1)C[C@@H]1CC[C@H]2N1C(=O)c1cccnc1 | 570 s

SMILES | RP-LC retention time
CC(C)CN1CCN(C(=O)c2cn3ccnc(-c4ccccc4)c3n2)CC1 | 606 s
Cc1ccc(S(=O)(=O)N2CCN(C3=CC4=NC(C)CN4C=N3)CC2)cc1C (stereo not given) | 698 s
CCCn1cc(C(=O)NC(C)c2cccnc2)c2cccnc21 (stereo not given) | 597 s
COCCn1cc(CCNC(=O)Nc2ccc(Cl)cc2F)c2cccnc21 | 806 s
O=C(NC1CCCCCC1)c1cccnc1N1CCNC(c2ccccc2)C1 (stereo not given) | 656 s
Cc1ccc(N2CCN(C(=O)c3cn4c(n3)COCC4)CC2)cc1 | 651 s
CCn1cc2c3c(cccc31)CN(C(=O)Nc1ccc(C)cc1)CC2 | 978 s
O=C(CN1CCC2(CC1)N=C(c1ccccc1)C(=O)N2)Nc1ccc(Br)cc1F | 685 s
COc1ccc(NC(=O)N2CCCC(C)(C(=O)NCc3ccccc3C)C2)c(OC)c1 (stereo not given) | 866 s
CC1(C)C(=O)N(CC(=O)Nc2ccc(F)c(Cl)c2)c2ccccc21 | 966 s
CCOc1ccccc1NC(=O)N1CCCC(Cn2c(C)nc3cccnc32)C1 (stereo not given) | 618 s
N[C@@H]1CCCN(c2c(/C=C3\SC(=O)NC3=O)cccc2-c2ccccc2)C1 | 772 s
Cc1nc(N(C)C)cc(N2CCN(C(=O)c3cccc(Br)c3)CC2)n1 | 656 s
CSc1ccc(C2C(C(=O)N3CCOCC3)=C(C)NC3=C2C(=O)CC(C)(C)C3)cc1 (stereo not given) | 696 s
Cc1cccc(S(=O)(=O)N2CCC(C)(C(=O)NCc3ccc(F)cc3)CC2)c1 | 936 s
CC1(C(=O)NCc2ccccc2)Cn2cnc(C(=O)NCCc3ccccc3)c2C(=O)N1C1CC1 (stereo not given) | 754 s
COc1cc(OC)c(NC(=O)N2CC(Cc3nc(-c4cnccn4)no3)C2)cc1Cl | 733 s
CC(C)(C)c1[nH]cnc1/C=c1\[nH]c(=O)/c(=C/c2ccccc2)[nH]c1=O | 806 s
Cc1nn(CC(=O)N2CCc3ccccc3C2)c(=O)c2nn(-c3ccccc3)c(C)c12 | 820 s
Cc1nc(-c2ccccn2)cc2nn(CC(=O)NCCC(C)C)c(=O)n12 | 713 s
Cc1nc(-c2csc(S(=O)(=O)N3CCC(C(=O)NCCc4ccccc4)CC3)c2)no1 | 1060 s
CC1CC(=O)c2cnc(N3CCN(Cc4ccccc4)CC3)nc2C1 (stereo not given) | 643 s
O=C(Cn1nc(C2CC2)cc1C(=O)N1CCCC1)Nc1ccccc1 | 740 s

SMILES | RP-LC retention time
Cc1cc(NC(=O)C2CCc3nc(N4CCOCC4)ncc3C2)ccc1Cl (stereo not given) | 897 s
Cc1cc(NC(=O)Cn2c(=O)cc(-c3nc(C4CC4)no3)c3ccccc32)ccc1F | 998 s
CC(C)n1cnc(S(=O)(=O)N2CCC(C(=O)NC3CCCCCC3)CC2)c1 | 736 s
CN1C(=O)[C@H]2CN(Cc3ccccc3Cl)C[C@H]2C1=O | 600 s
CCn1cc(S(=O)(=O)Nc2ccccc2F)c2cccnc21 | 790 s
COCC(C)(O)CNC(=O)C(=O)Nc1ccccc1C#N (stereo not given) | 629 s
O=C1/C(=C/c2ccccc2)CN(C(=O)/C=C/c2ccccc2)C/C1=C\c1ccccc1 | 1140 s
CCOCCOC1CCN(S(=O)(=O)c2ccc(OC)cc2)CC1 | 831 s
O=C1NCCCn2cc(S(=O)(=O)NC3CCCCCC3)cc21 | 688 s
O=C(NC1CCCCCC1)C1CCN(Cc2cc3ccccc3n2Cc2cccc(F)c2)CC1 | 848 s
CCc1ccccc1NC(=O)Cn1c(C(C)C)nc2c(c1=O)CCN(Cc1ccccc1)C2 | 699 s
Cc1cc(C)c(S(=O)(=O)N2CCCC2c2nc(-c3cccc(Cl)c3)no2)c(C)c1 (stereo not given) | 1350 s
CCCN1CCN(C(=O)C2=NN(c3ccc(Cl)cc3)c3ncccc3S2(=O)=O)CC1 | 676 s
CCOCN(C(=O)Cn1c(C(C)O)nc2ccccc21)c1c(C)cccc1CC (stereo not given) | 748 s
O=C1CN(S(=O)(=O)c2ccccc2C(F)(F)F)CC2(CCCCC2)N1C1CCCC1 | 1230 s
O=C(NC1CCCCC1)c1nc(-c2ccncc2)cs1 | 660 s
COC(=O)c1ccc2c(=O)n(-c3ccc(Cl)cc3)c(N3CCSC3)nc2c1 | 1110 s
Cn1c(=O)c(C(=O)N2CCN(c3ccccn3)CC2)nn(-c2ccccc2)c1=O | 604 s
CC(Oc1cccc(Cl)c1)C(=O)NCC1CCOCC1 (stereo not given) | 779 s
O=C(Nc1ccc(S(=O)(=O)N2CCCCC2c2cccnc2)cc1)c1ccccc1F (stereo not given) | 617 s
O=C(NC1CC1)c1ccc(OCC2CCN(C(=O)c3ccc(F)cc3Cl)CC2)cc1 | 837 s
COc1ccc(NC(=O)c2c(C)oc3nc(C)nc(N4CCOCC4)c23)c(OC)c1 | 818 s
Cc1cccc(-c2nc3ccccn3c2NC(=O)NCc2ccco2)c1 | 640 s

SMILES | RP-LC retention time
CC(=O)NCCCCCCNC(C)=O | 604 s
CS(=O)(=O)N(Cc1ccccn1)C1CN(C(=O)CCc2nc3ccccc3s2)C1 | 656 s
COc1ccc(C(=O)OCCN2CCN(C3=NS(=O)(=O)c4ccccc43)CC2)cc1OC | 618 s
CCSc1ccccc1C(=O)Nc1cccc2ccc(-n3ccnc3)nc12 | 668 s
Cc1sc(NC(=O)C(F)(F)F)nc1-c1ccc2c(c1)NC(=O)CO2 | 763 s
COC(=O)c1ncn2c1C(=O)N(CCc1ccccc1)C(C)(C(=O)NC1CCCC1)C2 (stereo not given) | 738 s
Cc1nc2ccn(Cc3cccs3)c(=O)c2cc1C(=O)NCCC1=CCCCC1 | 931 s
CN1Cc2ccccc2-n2ccnc2C12CCN(C(=O)c1ccc(Br)o1)CC2 | 615 s
CCc1nc2c(=O)n(CC(=O)N3CCCCCC3)nc(C)c2s1 | 706 s
O=C(CN1C(=O)CC(c2ccccc2)S(=O)(=O)c2ccccc21)N1CCOCC1 (stereo not given) | 704 s
Cn1nc(C(=O)N2CCCC2)c2c1CCN(C(=O)CCC(=O)NC1CCCCC1)C2 | 664 s
Cc1ccc(CNC(=O)c2ccc3c(=O)n(-c4ccccc4)c(N4CCCC4)nc3c2)o1 | 830 s
CCN1C(=O)c2cccnc2Sc2cc(NC(=O)c3ccc(OC)c(F)c3)ccc21 | 836 s
Cc1ccc(N2CC(C(=O)N3CCCC3)CC2=O)cc1 (stereo not given) | 640 s
Cc1ccccc1-c1cc2c(=O)n(Cc3nc(-c4ccc5c(c4)OCO5)no3)ccn2n1 | 1050 s
COC(=O)c1ncn2c1C(=O)N(Cc1ccc(F)cc1)C(C)(C(=O)NCc1ccc(C)cc1)C2 (stereo not given) | 772 s
CCC1CCCCN1CCNC(=O)Cn1c(=O)n(-c2ccccc2)c2ncccc21 (stereo not given) | 597 s
COc1ccc(-c2noc(-c3nn(-c4ccc(C)c(C)c4)ccc3=O)n2)cc1OC | 886 s
Cc1cc(C(=O)NCc2ccco2)c2cccc(-c3ccccc3)c2n1 | 936 s
Cc1oc(-c2[nH]ncc2C(=O)N2CCCCC2)cc1S(=O)(=O)Nc1cccc(F)c1 | 710 s
CCn1ccc(C(=O)NC2CCN(C3=NS(=O)(=O)C(c4ccc(F)cc4)=C3C)CC2)n1 | 777 s
